How the values were obtained:
hMAO-A = molecular target: T1, hMAO-A (Homo sapiens, UniProt P21397); conditions: previously identified BRS-3D hits, cited from earlier work
T1 sequence (P21397 1-527): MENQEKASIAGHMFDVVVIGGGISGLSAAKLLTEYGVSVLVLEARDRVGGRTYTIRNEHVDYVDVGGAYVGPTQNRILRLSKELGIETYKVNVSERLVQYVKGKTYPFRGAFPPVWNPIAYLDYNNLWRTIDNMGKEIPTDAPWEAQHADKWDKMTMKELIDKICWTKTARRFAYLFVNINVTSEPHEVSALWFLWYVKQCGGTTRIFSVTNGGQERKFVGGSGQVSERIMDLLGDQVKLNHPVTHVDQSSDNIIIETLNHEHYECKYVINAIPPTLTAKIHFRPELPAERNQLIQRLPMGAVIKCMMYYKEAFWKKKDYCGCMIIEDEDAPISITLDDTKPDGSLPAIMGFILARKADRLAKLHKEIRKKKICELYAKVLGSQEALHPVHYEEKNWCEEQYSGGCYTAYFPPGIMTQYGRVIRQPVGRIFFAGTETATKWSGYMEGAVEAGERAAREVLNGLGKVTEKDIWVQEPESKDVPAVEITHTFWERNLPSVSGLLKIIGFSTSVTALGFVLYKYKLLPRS

hMAO-B = molecular target: T2, hMAO-B (Homo sapiens, UniProt P27338); conditions: previously identified BRS-3D hits, cited from earlier work
T2 sequence (P27338 1-520): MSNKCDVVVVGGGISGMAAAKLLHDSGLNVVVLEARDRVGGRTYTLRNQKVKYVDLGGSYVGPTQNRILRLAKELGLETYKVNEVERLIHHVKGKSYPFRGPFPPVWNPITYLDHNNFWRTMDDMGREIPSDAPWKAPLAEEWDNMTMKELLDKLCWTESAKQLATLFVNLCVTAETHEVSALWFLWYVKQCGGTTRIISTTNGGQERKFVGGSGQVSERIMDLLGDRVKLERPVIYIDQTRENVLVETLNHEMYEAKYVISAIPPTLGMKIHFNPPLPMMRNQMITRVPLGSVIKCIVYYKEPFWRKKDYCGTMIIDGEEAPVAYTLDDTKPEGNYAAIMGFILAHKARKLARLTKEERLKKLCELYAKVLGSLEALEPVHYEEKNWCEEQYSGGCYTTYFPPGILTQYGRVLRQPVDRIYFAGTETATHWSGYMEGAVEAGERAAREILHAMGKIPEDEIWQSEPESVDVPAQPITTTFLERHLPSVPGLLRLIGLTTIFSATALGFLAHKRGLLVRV

[1] = pIC50 = −log(IC50), listed as M43 (7a)

For Cc1cc(=O)oc2cc(Oc3nnc(-c4ccccc4)s3)ccc12 [M43, 4-Methyl-7-((5-phenyl-1,3,4-thiadiazol-2-yl)oxy)-2H-chromen-2-one], the melting point is given as 124 to 125 °C, the “MAO-A pIC50” value (hMAO-A; [1]) is given as 6.8 and the IC50 (hMAO-A; read-out: MAO-A IC50) is given as 160 nM. The “MAO-B Avg. Inh% at 10 uM” value (hMAO-B; 10 μM) was 96%, the “MAO-B pIC50” value (hMAO-B; [1]) was 6.4 and the IC50 (hMAO-B; read-out: MAO-B IC50) was 360 nM.

— PMC6864482, “Novel C7-Substituted Coumarins as Selective Monoamine Oxidase Inhibitors: Discovery, Synthesis and Theoretical Simulation” (Molecules, 2019)
